Experimental data reported in US9884851B2, “Heterocycle-bisamide inhibitors of scavenger receptor BI” (THE BROAD INSTITUTE, INC., priority 2012, dated 2018).
≈ marks a conversion by molar mass, not a printed value. Entries after “also recorded” stand apart in the source; their conditions may differ.

Experiments:
ldlA[mSR-BI] cells = assay: Cell cytotoxicity assay (CellTiter-Glo); conditions: ldlA[mSR-BI] cells
Procedure: It is possible that a compound will cause cells to decrease HDL-mediated DiI uptake due to nonspecific consequences of cellular toxicity, representing a second class of false positive hits. The cells were treated with compounds for 3 hours or 24 hours, and then cell viability was measured using the CellTiter-Glo Assay (Promega), a luciferase-based reagent that measures cellular ATP levels. The compounds were tested at different concentrations to determine IC50 values. […] Data were normalized against DMSO and the positive control (1 μM BLT-1) in Genedata Assay Analyzer.
All available dry powder samples of the remaining, non-quenching compounds were procured from commercial sources and purities were determined. The compounds obtained were then retested in the primary assay and in cytotoxicity assays. We wanted to rule out any compounds that were cytotoxic, especially in the 3-hour time span of the primary DiI-HDL uptake assay. Therefore, compounds were tested in ldl[mSR-BI] cells for cytotoxicity at 3 hours and 24 hours using the CellTiter-Glo assay (Promega) that measures cellular ATP as a marker of cell viability. […] Compounds were screened for inhibition of endocytosis using labeled transferrin, which is known to bind the transferrin receptor, enter cells by clathrin-mediated endocytosis, and move to endosomes before being recycled to the cell surface.

[1] = molecular target: T1, murine SR-BI with the C384S mutation (Mus musculus, UniProt Q61009, C384S); assay: Mutant SR-BI cholesterol efflux assay; format: cell-based; conditions: Cys384 converted to serine
T1 construct: expressed in transfected cells; host or cells: CHO cell line lacking LDL receptors, overexpressing C384S SR-BI
T1 sequence (Q61009 1-509 C384S): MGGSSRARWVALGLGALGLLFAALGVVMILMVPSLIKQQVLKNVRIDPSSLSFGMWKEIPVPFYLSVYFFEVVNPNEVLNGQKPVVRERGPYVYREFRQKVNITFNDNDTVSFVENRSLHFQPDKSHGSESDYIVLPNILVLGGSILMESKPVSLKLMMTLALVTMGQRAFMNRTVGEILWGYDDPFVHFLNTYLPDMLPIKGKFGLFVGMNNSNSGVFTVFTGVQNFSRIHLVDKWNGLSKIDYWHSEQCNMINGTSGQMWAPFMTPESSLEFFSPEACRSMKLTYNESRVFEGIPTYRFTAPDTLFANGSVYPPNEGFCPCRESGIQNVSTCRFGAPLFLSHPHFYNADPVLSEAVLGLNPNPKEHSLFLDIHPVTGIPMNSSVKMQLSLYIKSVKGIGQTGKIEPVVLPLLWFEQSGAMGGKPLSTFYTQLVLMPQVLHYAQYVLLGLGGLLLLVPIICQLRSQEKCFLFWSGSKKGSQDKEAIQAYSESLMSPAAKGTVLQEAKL
Procedure: Mutant SR-BI Cholesterol Efflux Assay (SA 10: AID Nos. 588843, 602138)
BLT-1 is known to interact at cysteine 384 of SR-BI (16). […] This assay is used to determine if the compounds work in a similar fashion to BLT-1 and require Cys384 to alter the efflux of FC to HDL.
On Day 0, 50,000 cells expressing murine SR-BI with the C384S mutation per well were plated in 24-well plates. On the following day, the media was removed and [^3H]cholesterol in lipoprotein-deficient media was added. On Day 1, the medium was replaced with Ham's F12 medium supplemented with 10% bovine lipoprotein deficient serum, 1 μCi/ml [1,2-^3H]cholesterol (40-60 Ci/mmol). On Day 3, the cells were washed to remove serum and incubated in Ham's F12 plus 1% fatty acid-free BSA. On Day 4, the cells were washed and pretreated with compounds for 1 hour. Subsequently, the cells were incubated for an additional 2 hours with the same concentrations of small molecules and with unlabeled HDL (final HDL concentration of 100 μg protein/ml). […] The amount of [^3H]cholesterol in the medium and within cells was determined using liquid scintillation counting. Total cellular [^3H]cholesterol was calculated as the sum of the radioactivity in the efflux medium plus the radioactivity in the cells and was used to calculate the [^3H]cholesterol efflux (percent of total [^3H]cholesterol released into the medium).

ldlA7 cells = assay: DiI-HDL uptake assay in the absence of SR-BI (ldlA7 counterscreen); format: cell-based, Chinese hamster; conditions: Cricetulus griseus; parental cells not overexpressing SR-BI
Procedure: DiI-HDL Uptake Assay in the Absence of SR-BI (SA 7: AID No. 588825)
In the primary assay, the cell line used to measure DiI-HDL uptake lacks the LDL receptor and overexpresses SR-BI. […] As in the primary assay, 10 μg protein/ml of DiI-HDL was used to measure DiI uptake into the cells after 3 hours of incubation with different concentrations of compound.

Solubility in PBS = format: physicochemical; conditions: PBS pH 7.4, 23° C., 1% DMSO
Procedure: We noticed that the concentration of the probe fluctuated through the course of the assay (data not shown). We believe that this fluctuation is due to the low kinetic solubility of the probe. Thus, we decided to determine the amount of undissolved probe present in the well after it was treated with PBS for a given length of time, relative to the amount of undissolved probe at the start of the assay. The wells were centrifuged and the supernatant was removed after various time points, then acetonitrile was added to dissolve the remaining solid in the wells, and the amount of probe was quantified. […] The stability of the probe was confirmed by measuring stability in human plasma, with >99% remaining after a 5-hour incubation period. […] FIG. 5 summarizes known properties of the probe.

Row | SMILES | cytotoxicity (in words) (ldlA[mSR-BI] cells) | efflux of cholesterol in C384S mutant background (in words) [1] | IC50 (ldlA7 cells) [µM] | solubility (Solubility in PBS; listed as CID53393835) [µM] | solubility (Solubility in PBS; phosphate buffered saline, 23 °C, pH 7.4, aqueous buffer, kinetic from dmso stock) [µM]
1 | C[C@H](C(=O)NC1CCCC1)N(C(=O)Cn1nnc(-c2ccc3c(c2)OCO3)n1)C1CCCCC1 [ML279, (R)-2-(2-(5-(Benzo[d][1,3]dioxol-5-yl)-2H-tetrazol-2-yl)-N-cyclohexylacetamido)-N-cyclopentylpropanamide] | not cytotoxic; also recorded: no cytotoxicity at 24 hours | can reduce uptake and efflux in the mutant background | > 35 | 27 (≈ 12.7 µg/mL) | 28 (≈ 13.1 µg/mL)
2 | CCCCCCC1CCCC1=NNC(N)=S (stereo not shown) [BLT-1, reference compound] | extremely toxic to cells | cannot reduce uptake of HDL or efflux of cholesterol | – | – | –
